# Measured values taken from patent US10294234B2, “HIV inhibitor compounds” (priority 2017, dated 2019).
# pEC50: −log10 of the molar value. Read-outs that look alike come from different tables or passages of the source.
# Test system: HIV-1 (IIIB) in MT-4 cells
# Test: MT-4 HIV assay
# Assay type: cell-based
# Conditions: Human immunodeficiency virus 1, MT4, 120 h
# Method: Compounds were tested in a high-throughput 384-well assay format for their ability to inhibit the replication of HIV-1 (IIIB) in MT-4 cells. Compounds were serially diluted (1:3) in DMSO on 384-well polypropylene plates and further diluted 200-fold into complete RPMI media (10% FBS, 1% P/S) using the Biotek Micro Flow and Agilent ECHO acoustic dispenser. Each plate contained up to 8 test compounds, with negative (No Drug Control) and 5 uM AZT positive controls. MT-4 cells were pre-infected with 10 uL of either RPMI (mock-infected) or a fresh 1:250 dilution of an HIV-1 (IIIB) concentrated virus stock. Infected and uninfected MT-4 cells were further diluted in complete RPMI media and added to each plate using a Micro Flow dispenser. After 5 days incubation in a humidified and temperature controlled incubator (37° C.), Cell Titer Glo (Promega) was added to the assay plates to quantify the amount of luciferase.
# [1] = HIV-1 (IIIB), MT-4 cells, 5 days, Cell Titer Glo, read-out: EC50
Compound,pEC50,pEC50 [1]
"COC(=O)N[C@H](C(=O)N[C@@H](Cc1ccc(C#Cc2ccc(N3CC4CCC(C3)N4CC3CN(C(=O)OC(C)(C)C)C3)nc2)cc1)[C@@H](O)CN(Cc1c(F)cc(-c2cnn(C(F)F)c2)cc1F)NC(=O)[C@@H](NC(=O)OC)C(C)(C)C(F)(F)F)C(C)(C)C(F)(F)F [Example 110, tert-butyl 3-((3-(5-((4-((2S,3S)-4-(1-(4-(1-(difluoromethyl)-1H-pyrazol-4-yl)-2,6-difluorobenzyl)-2-((S)-4,4,4-trifluoro-2-((methoxycarbonyl)amino)-3,3-dimethylbutanoyl)hydrazinyl)-3-hydroxy-2-((S)-4,4,4-trifluoro-2-((methoxycarbonyl)amino)-3,3-dimethylbutanamido)butyl)phenyl)ethynyl)pyridin-2-yl)-3,8-diazabicyclo[3.2.1]octan-8-yl)methyl)azetidine-1-carboxylate]",7.51,–
"COC(=O)N[C@H](C(=O)NN(Cc1c(F)cc(-c2ccn(CC(F)F)n2)cc1F)C[C@H](O)[C@H](Cc1ccc(-c2cnc(N3CC4CCC(C3)N4C3COC3)nc2)cc1)NC(=O)[C@@H](NC(=O)OC)C(C)(C)C(F)(F)F)C(C)(C)C [Example 193, Methyl ((5S,8S,9S,14S)-11-(4-(1-(2,2-difluoroethyl)-1H-pyrazol-3-yl)-2,6-difluorobenzyl)-9-hydroxy-15,15-dimethyl-8-(4-(2-(8-(oxetan-3-yl)-3,8-diazabicyclo[3.2.1]octan-3-yl)pyrimidin-5-yl)benzyl)-3,6,13-trioxo-5-(1,1,1-trifluoro-2-methylpropan-2-yl)-2-oxa-4,7,11,12-tetraazahexadecan-14-yl)carbamate]",–,8.56
"COC(=O)N[C@H](C(=O)N[C@@H](Cc1ccc(C#Cc2ccc(N3CC4CCC(C3)N4C3COC3)nc2)cc1)[C@@H](O)CN(Cc1c(F)cc(-c2ccccn2)cc1F)NC(=O)[C@@H](NC(=O)OC)C(C)(C)C)C(C)(C)C [Example 84, Methyl ((5S,8S,9S,14S)-5-(tert-butyl)-11-(2,6-difluoro-4-(pyridin-2-yl)benzyl)-9-hydroxy-15,15-dimethyl-8-(4-((6-(8-(oxetan-3-yl)-3,8-diazabicyclo[3.2.1]octan-3-yl)pyridin-3-yl)ethynyl)benzyl)-3,6,13-trioxo-2-oxa-4,7,11,12-tetraazahexadecan-14-yl)carbamate]",–,8.49
"COC(=O)N[C@H](C(=O)N[C@@H](Cc1ccc(C#Cc2ccc(N3CC4CCC(C3)N4C(C)C)nc2)cc1)[C@@H](O)CN(Cc1c(F)cc(-c2cnn(C(F)F)c2)cc1F)NC(=O)[C@@H](NC(=O)OC)C(C)(C)C(F)(F)F)C(C)(C)C(F)(F)F [Example 166, Methyl ((5S,8S,9S,14S)-11-(4-(1-(difluoromethyl)-1H-pyrazol-4-yl)-2,6-difluorobenzyl)-16,16,16-trifluoro-9-hydroxy-8-(4-((6-(8-isopropyl-3,8-diazabicyclo[3.2.1]octan-3-yl)pyridin-3-yl)ethynyl)benzyl)-15,15-dimethyl-3,6,13-trioxo-5-(1,1,1-trifluoro-2-methylpropan-2-yl)-2-oxa-4,7,11,12-tetraazahexadecan-14-yl)carbamate]",–,8.15
"COC(=O)N[C@H](C(=O)NN(Cc1ccc(-c2cnn(C(F)F)c2)cc1F)C[C@H](O)[C@H](Cc1ccc(C#Cc2ccc(N3CC4CCC(C3)N4C3COC3)nc2)cc1)NC(=O)[C@@H](NC(=O)OC)C(C)(C)C(F)(F)F)C(C)(C)C [Example 230, methyl ((5S,8S,9S,14S)-11-(4-(1-(difluoromethyl)-1H-pyrazol-4-yl)-2-fluorobenzyl)-9-hydroxy-15,15-dimethyl-8-(4-((6-(8-(oxetan-3-yl)-3,8-diazabicyclo[3.2.1]octan-3-yl)pyridin-3-yl)ethynyl)benzyl)-3,6,13-trioxo-5-(1,1,1-trifluoro-2-methylpropan-2-yl)-2-oxa-4,7,11,12-tetraazahexadecan-14-yl)carbamate]",–,8.40
"COC(=O)N[C@H](C(=O)N[C@@H](Cc1ccc(C#Cc2ccc(N3C[C@H]4C[C@@H]3CN4C3COC3)nc2)cc1)[C@@H](O)CN(Cc1ccc(-c2ccn(C(F)F)n2)cc1)NC(=O)[C@@H](NC(=O)OC)C(C)(C)C(F)(F)F)C(C)(C)C(F)(F)F [Example 29, Methyl ((5S,8S,9S,14S)-11-(4-(1-(difluoromethyl)-1H-pyrazol-3-yl)benzyl)-16,16,16-trifluoro-9-hydroxy-15,15-dimethyl-8-(4-((6-((1R,4R)-5-(oxetan-3-yl)-2,5-diazabicyclo [2.2.1]heptan-2-yl)pyridin-3-yl)ethynyl)benzyl)-3,6,13-trioxo-5-(1,1,1-trifluoro-2-methylpropan-2-yl)-2-oxa-4,7,11,12-tetraazahexadecan-14-yl)carbamate]",–,8.40
"COC(=O)N[C@H](C(=O)N[C@@H](Cc1ccc(C#Cc2ccc(N3CC4CCC(C3)N4CC3(C)COC3)nc2)cc1)[C@@H](O)CN(Cc1c(F)cc(-c2cnn(C(F)F)c2)cc1F)NC(=O)[C@@H](NC(=O)OC)C(C)(C)C(F)(F)F)C(C)(C)C(F)(F)F [Example 108, Methyl ((5S,8S,9S,14S)-11-(4-(1-(difluoromethyl)-1H-pyrazol-4-yl)-2,6-difluorobenzyl)-16,16,16-trifluoro-9-hydroxy-15,15-dimethyl-8-(4-((6-(8-((3-methyloxetan-3-yl)methyl)-3,8-diazabicyclo[3.2.1]octan-3-yl)pyridin-3-yl)ethynyl)benzyl)-3,6,13-trioxo-5-(1,1,1-trifluoro-2-methylpropan-2-yl)-2-oxa-4,7,11,12-tetraazahexadecan-14-yl)carbamate]",–,8.14
"COC(=O)N[C@H](C(=O)NN(Cc1c(F)cc(-c2ccn(CC(F)F)n2)cc1F)C[C@H](O)[C@H](Cc1ccc(C#Cc2ccc(N3C[C@H]4C[C@@H]3CN4C3COC3)nc2)cc1)NC(=O)[C@@H](NC(=O)OC)C(C)(C)C(F)(F)F)C(C)(C)C [Example 8, methyl ((5S,8S,9S,14S)-11-(4-(1-(2,2-difluoroethyl)-1H-pyrazol-3-yl)-2,6-difluorobenzyl)-9-hydroxy-15,15-dimethyl-8-(4-((6-((1R,4R)-5-(oxetan-3-yl)-2,5-diazabicyclo[2.2.1]heptan-2-yl)pyridin-3-yl)ethynyl)benzyl)-3,6,13-trioxo-5-(1,1,1-trifluoro-2-methylpropan-2-yl)-2-oxa-4,7,11,12-tetraazahexadecan-14-yl)carbamate]",–,8.61
"COC(=O)N[C@H](C(=O)N[C@@H](Cc1ccc(-c2ccc(N3C[C@H]4C[C@@H]3CN4C3COC3)nc2)cc1)[C@@H](O)CN(Cc1c(F)cc(-c2ccn(C3CC3)n2)cc1F)NC(=O)[C@@H](NC(=O)OC)C(C)(C)C(F)(F)F)C(C)(C)C(F)(F)F [Example 194, Methyl ((5S,8S,9S,14S)-11-(4-(1-cyclopropyl-1H-pyrazol-3-yl)-2,6-difluorobenzyl)-16,16,16-trifluoro-9-hydroxy-15,15-dimethyl-8-(4-(6-((1R,4R)-5-(oxetan-3-yl)-2,5-diazabicyclo[2.2.1]heptan-2-yl)pyridin-3-yl)benzyl)-3,6,13-trioxo-5-(1,1,1-trifluoro-2-methylpropan-2-yl)-2-oxa-4,7,11,12-tetraazahexadecan-14-yl)carbamate]",8.14,–
"COC(=O)N[C@H](C(=O)N[C@@H](Cc1ccc(C#Cc2ccc(N3CC4CCC(C3)N4C3COC3)nc2)cc1)[C@@H](O)CN(Cc1ccc(-c2ccccn2)cc1Cl)NC(=O)[C@@H](NC(=O)OC)C(C)(C)C(F)(F)F)C(C)(C)C(F)(F)F [Example 148, Methyl ((5S,8S,9S,14S)-11l-(2-chloro-4-(pyridin-2-yl)benzyl)-16,16,16-trifluoro-9-hydroxy-15,15-dimethyl-8-(4-((6-(8-(oxetan-3-yl)-3,8-diazabicyclo[3.2.1]octan-3-yl)pyridin-3-yl)ethynyl)benzyl)-3,6,13-trioxo-5-(1,1,1-trifluoro-2-methylpropan-2-yl)-2-oxa-4,7,11,12-tetraazahexadecan-14-yl)carbamate]",–,8.16
"COC(=O)N[C@H](C(=O)N[C@@H](Cc1ccc(-c2cnc(N3C[C@H]4C[C@@H]3CN4C3COC3)nc2)cc1)[C@@H](O)CN(Cc1c(F)cc(-c2ccn(CC(F)F)n2)cc1F)NC(=O)[C@@H](NC(=O)OC)C(C)(C)C(F)(F)F)C(C)(C)C(F)(F)F [Example 191, Methyl ((5S,8S,9S,14S)-11-(4-(1-(2,2-difluoroethyl)-1H-pyrazol-3-yl)-2,6-difluorobenzyl)-16,16,16-trifluoro-9-hydroxy-15,15-dimethyl-8-(4-(2-((1R,4R)-5-(oxetan-3-yl)-2,5-diazabicyclo[2.2.1]heptan-2-yl)pyrimidin-5-yl)benzyl)-3,6,13-trioxo-5-(1,1,1-trifluoro-2-methylpropan-2-yl)-2-oxa-4,7,11,12-tetraazahexadecan-14-yl)carbamate]",7.76,–
"COC(=O)N[C@H](C(=O)N[C@@H](Cc1ccc(C#Cc2ccc(N3CC4CCC(C3)N4C3COC3)nc2)cc1)[C@@H](O)CN(Cc1ccc(-c2ccn(C3CC3)n2)cc1)NC(=O)[C@@H](NC(=O)OC)C(C)(C)C(F)(F)F)C(C)(C)C(F)(F)F [Example 34, Methyl ((5S,8S,9S,14S)-11-(4-(1-cyclopropyl-1H-pyrazol-3-yl)benzyl)-16,16,16-trifluoro-9-hydroxy-15,15-dimethyl-8-(4-((6-(8-(oxetan-3-yl)-3,8-diazabicyclo [3.2.1]octan-3-yl)pyridin-3-yl)ethynyl)benzyl)-3,6,13-trioxo-5-(1,1,1-trifluoro-2-methylpropan-2-yl)-2-oxa-4,7,11,12-tetraazahexadecan-14-yl)carbamate]",–,8.28
